Tests used:
[1] = tested on: human adrenal gland section expressing aldosterone-producing adenoma; assay: In vitro autoradiography using human adrenal adenoma; format: binding
Summary of the method: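 Autoradiography readout: PSL in equal-sized ROIs over adenoma (B2) and normal adrenal cortex (B1), expressed as B2/B1 and decay-corrected using half-life, applied activity and plate contact time. Tissue was surgically excised human adrenal, frozen and cut at 7 μm, incubated 10 min with 5-33 kBq/mL tracer in BSA-containing PBS, then imaged after 16-20 h exposure.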

[2] = Plasma stability evaluation (TLC analysis); format: in vitro ADME; conditions: 37° C., 60 minutes
Summary of the method: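 TLC analysis, using each compound's synthesis conditions, judged stability after methanol was added and samples were centrifuged to remove protein. Beforehand, each tracer had spent 60 minutes at 37° C in pooled heparinized normal human plasma.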

[3] = In vivo kinetics experiment (radioactivity distribution); parameters: species or system Wistar male rat; conditions: rat; for Adrenal gland/blood ratio of radioactivity accumulation / Adrenal gland/fat ratio of radioactivity accumulation / Adrenal gland/kidney ratio of radioactivity accumulation / Adrenal gland/liver ratio of radioactivity accumulation / Adrenal gland/muscle ratio of radioactivity accumulation / Adrenal gland/small intestine ratio of radioactivity accumulation / Radioactivity distribution Adrenal gland / Radioactivity distribution Bladder (including urine) / Radioactivity distribution Blood / Radioactivity distribution Fat / Radioactivity distribution Heart / Radioactivity distribution Kidney / Radioactivity distribution Large intestine / Radioactivity distribution Liver / Radioactivity distribution Lung / Radioactivity distribution Muscle (lower limbs) / Radioactivity distribution Remaining whole body / Radioactivity distribution Small intestine / Radioactivity distribution Spleen / Radioactivity distribution Stomach / Radioactivity distribution Testis / Radioactivity distribution Thyroid gland / Radioactivity distribution Whole brain: caudal vein
Summary of the method: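 Tissue radioactivity (% ID/g) and adrenal-to-blood, liver, kidney, small intestine, muscle and fat ratios determined at 10, 30 and 60 min post-dose. Tracers (approximately 1 to 3.7 MBq, saline with 1 w/v % ascorbic acid) injected i.v. into caudal vein of anesthetized 9-week male Wistar rats; organs excised, weighed, counted.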

## FCCn1c(-c2cncc(Cn3ccnc3)c2)nc2cc(F)c([123I])cc21 [[^123I] 400, 5-Fluoro-1-(2-fluoroethyl)-2-[5-(imidazol-1-ylmethyl)pyridin-3-yl]-6-[^123I]iodobenzimidazole]
[1]; FIGS. 18 to 31
  accumulation of radioactivity in adrenal gland section (autoradiogram): accumulation of radioactivity was selectively observed in a region in which aldosterone-producing adenoma had been pathologically observed
[1]; section of FIG. 17(a)
  B2/B1 accumulation ratio: 2.89
[1]; section of FIG. 17(a), site 71a
  B2 (PSL value, aldosterone-producing adenoma): 4611
[1]; section of FIG. 17(a), site 72a
  B1 (PSL value, normal adrenal cortex): 1596
[2]
  stability in human plasma: hardly metabolized and decomposed in the plasma
[2]; TLC analysis
  Radiochemical purity after incubation in human plasma: 88%
[3]; Tables 9 to 22
  accumulation of radioactivity in adrenal gland vs blood and peripheral tissues: high accumulation of radioactivity in adrenal gland was observed, in comparison to in blood and peripheral tissues
[3]; 10 min after administration
  Adrenal gland/blood ratio of radioactivity accumulation: 28.34
  Adrenal gland/fat ratio of radioactivity accumulation: 89.23
  Adrenal gland/kidney ratio of radioactivity accumulation: 5.85
  Adrenal gland/liver ratio of radioactivity accumulation: 3.02
  Adrenal gland/muscle ratio of radioactivity accumulation: 54.21
  Adrenal gland/small intestine ratio of radioactivity accumulation: 6.95
  Radioactivity distribution Adrenal gland: 9.09 % ID/g
  Radioactivity distribution Bladder (including urine): 0.32 % ID/g
  Radioactivity distribution Blood: 0.32 % ID/g
  Radioactivity distribution Fat: 0.10 % ID/g
  Radioactivity distribution Heart: 0.63 % ID/g
  Radioactivity distribution Kidney: 1.54 % ID/g
  Radioactivity distribution Large intestine: 0.19 % ID/g
  Radioactivity distribution Liver: 2.98 % ID/g
  Radioactivity distribution Lung: 1.06 % ID/g
  Radioactivity distribution Muscle (lower limbs): 0.17 % ID/g
  Radioactivity distribution Remaining whole body: 0.27 % ID/g
  Radioactivity distribution Small intestine: 1.30 % ID/g
  Radioactivity distribution Spleen: 5.26 % ID/g
  Radioactivity distribution Stomach: 1.03 % ID/g
  Radioactivity distribution Testis: 0.07 % ID/g
  Radioactivity distribution Thyroid gland: 3.54 % ID/g
  Radioactivity distribution Whole brain: 0.02 % ID/g
[3]; 30 min after administration
  Adrenal gland/blood ratio of radioactivity accumulation: 40.26
  Adrenal gland/fat ratio of radioactivity accumulation: 147.73
  Adrenal gland/kidney ratio of radioactivity accumulation: 17.90
  Adrenal gland/liver ratio of radioactivity accumulation: 13.82
  Adrenal gland/muscle ratio of radioactivity accumulation: 110.91
  Adrenal gland/small intestine ratio of radioactivity accumulation: 9.24
  Radioactivity distribution Adrenal gland: 16.93 % ID/g
  Radioactivity distribution Bladder (including urine): 1.35 % ID/g
  Radioactivity distribution Blood: 0.43 % ID/g
  Radioactivity distribution Fat: 0.12 % ID/g
  Radioactivity distribution Heart: 0.49 % ID/g
  Radioactivity distribution Kidney: 0.95 % ID/g
  Radioactivity distribution Large intestine: 0.19 % ID/g
  Radioactivity distribution Liver: 1.24 % ID/g
  Radioactivity distribution Lung: 0.76 % ID/g
  Radioactivity distribution Muscle (lower limbs): 0.15 % ID/g
  Radioactivity distribution Remaining whole body: 0.31 % ID/g
  Radioactivity distribution Small intestine: 1.83 % ID/g
  Radioactivity distribution Spleen: 5.44 % ID/g
  Radioactivity distribution Stomach: 2.24 % ID/g
  Radioactivity distribution Testis: 0.12 % ID/g
  Radioactivity distribution Thyroid gland: 9.97 % ID/g
  Radioactivity distribution Whole brain: 0.02 % ID/g
[3]; 60 min after administration
  Adrenal gland/blood ratio of radioactivity accumulation: 29.41 ± 3.13
  Adrenal gland/fat ratio of radioactivity accumulation: 105.17 ± 28.98
  Adrenal gland/kidney ratio of radioactivity accumulation: 18.87 ± 3.12
  Adrenal gland/liver ratio of radioactivity accumulation: 16.66 ± 3.13
  Adrenal gland/muscle ratio of radioactivity accumulation: 95.38 ± 22.07
  Adrenal gland/small intestine ratio of radioactivity accumulation: 6.64 ± 2.31
  Radioactivity distribution Adrenal gland: 11.65 ± 1.54 % ID/g
  Radioactivity distribution Bladder (including urine): 1.27 ± 0.07 % ID/g
  Radioactivity distribution Blood: 0.40 ± 0.01 % ID/g
  Radioactivity distribution Fat: 0.11 ± 0.02 % ID/g
  Radioactivity distribution Heart: 0.35 ± 0.03 % ID/g
  Radioactivity distribution Kidney: 0.62 ± 0.08 % ID/g
  Radioactivity distribution Large intestine: 0.43 ± 0.19 % ID/g
  Radioactivity distribution Liver: 0.70 ± 0.05 % ID/g
  Radioactivity distribution Lung: 0.60 ± 0.03 % ID/g
  Radioactivity distribution Muscle (lower limbs): 0.12 ± 0.02 % ID/g
  Radioactivity distribution Remaining whole body: 0.33 ± 0.02 % ID/g
  Radioactivity distribution Small intestine: 1.85 ± 0.44 % ID/g
  Radioactivity distribution Spleen: 5.27 ± 0.89 % ID/g
  Radioactivity distribution Stomach: 4.35 ± 0.25 % ID/g
  Radioactivity distribution Testis: 0.15 ± 0.01 % ID/g
  Radioactivity distribution Thyroid gland: 19.76 ± 1.03 % ID/g
  Radioactivity distribution Whole brain: 0.02 ± 0.00 % ID/g
